Reference: publication PMC5887547, “An allosteric inhibitor of Mycobacterium tuberculosis ArgJ: Implications to a novel combinatorial therapy” (EMBO Molecular Medicine, 2018)

Columns and labels:
[1] = molecular target: T1, Ornithine acetyltransferase (MtArgJ) (Mycobacterium tuberculosis, UniProt P9WPZ3); assay: […]; marginal decrease of enzyme activity (TLC assay); type: binding
T1 construct: gene argJ

[2] = molecular target: T1, Ornithine acetyltransferase (MtArgJ); assay: thermal shift assay (apparent Kd); also ANS displacement ([…]) and enzyme inhibition by TLC assay (Dixon Ki […]); type: binding
[3] = test system: CC(=O)N[C@@H](CCCN)C(=O)O; assay: purified protein; details: active (substrate-binding) site

T1 sequence (P9WPZ3 1-199): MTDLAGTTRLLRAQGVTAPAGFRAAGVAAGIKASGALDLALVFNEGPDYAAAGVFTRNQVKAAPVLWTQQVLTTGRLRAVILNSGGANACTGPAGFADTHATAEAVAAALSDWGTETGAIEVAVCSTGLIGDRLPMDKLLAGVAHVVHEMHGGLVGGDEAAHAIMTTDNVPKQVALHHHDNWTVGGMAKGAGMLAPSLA
T1 sequence (P9WPZ3 200-404): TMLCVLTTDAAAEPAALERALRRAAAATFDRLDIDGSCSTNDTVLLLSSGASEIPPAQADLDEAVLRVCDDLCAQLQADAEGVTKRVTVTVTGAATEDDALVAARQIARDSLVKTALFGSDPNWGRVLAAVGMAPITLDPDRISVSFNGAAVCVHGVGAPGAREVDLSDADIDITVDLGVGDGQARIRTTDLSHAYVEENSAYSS

O=S(=O)(O)c1cccc2cccc(Nc3ccccc3)c12 [ANS, 8‐anilinonaphthalene‐1‐sulfonic acid]
Kd [1]: 937 µM

O=C(Nc1cccc2c(=O)cc(-c3nnn[nH]3)oc12)c1ccc(OCCCCc2ccccc2)cc1 [PRK, Pranlukast]
Kd [2]: 126 µM

Ornithine acetyltransferase (MtArgJ) (Mycobacterium tuberculosis H37Rv)
Km [3]: 91.8 µM
